Laboratory results taken from US20040202652A1, “Methods and compositions for control of bone formation via modulation of leptin activity” (Baylor College of Medicine, priority 1999, published 2004).
Entries after “also recorded” stand apart in the source; their conditions may differ.

Assays:
ob/ob mice [1] = assay: 17 β-estradiol pellet treatment to correct hypogonadism of ob/ob mice; type: in vivo
Method: (§1) Histologic analysis was performed on undecalcified sections stained with the von Kossa reagent and counterstained with Kernechtrot. In 3 and 6 month-old mice the presence of many more thick trabeculae in the bones of ob/ob mice compared to those of wild-type mice was observed (FIG. 1B). The cortical bone was not affected. Histomorphometric quantification according to standard techniques were performed (Parfitt et al., 1987, J Bone Min Res 2, 595-610) using the Osteomeasure Analysis System (Osteometrics, Atlanta). Statistical differences between groups (n=4 to 6) were assessed by Student's test. […] The functional consequences of this increase in bone mass were analyzed by comparing the biomechanical properties of long bones of 6 month-old ob/ob mice, wild-type mice, and wild-type mice that have been ovariectomized (wild-type-ovx) for 4 months to mimic the hypogonadic state of the ob/ob mice. An assay in which femora were tested to failure by three-point bending on a servo-hydrolic testing machine (Zwick GmbH & Co.) at a constant displacement rate of 10 mm/min was used to determine failure load, which is a measure of the strength of the bones. […] Analysis of the bones of the db/db mice that have an inactivating mutation of the leptin receptor was also performed (Tartaglia et al., 1995, Cell 83, 1263-1271). Like the ob/ob mice, the db/db mice are obese and hypogonadic. There was an increase in the number of trabeculae in both long bones and vertebrae similar to that observed in ob/ob mice (FIG. IE) resulting in a 3-fold increase in bone volume compared to wild-type mice (FIG. 1F).
Nevertheless, to address this point more thoroughly the hypogonadism of the ob/ob mice was exploited. Hypogonadism normally leads to an increase in osteoclasts number and in bone resorptive activity. Thus, if the osteoclasts of the ob/ob mice were functional, correcting the hypogonadism of these mice should decrease their rate of bone resorption by diminishing the number of osteoclasts and thereby should further increase their bone mass. On the other hand, if the osteoclasts of the ob/ob mice were not functioning properly, correcting their hypogonadism should not affect the severity of their high bone mass phenotype. To determine which of these two possibilities was correct, 17 β-estradiol or placebo pellets (Innovative Research of America) were implanted subcutaneously in 2-month-old female ob/ob mice to maintain a serum concentration of 250 pg/mL. These animals were analyzed after a 3-month treatment period.

Stat3 phosphorylation = assay: Western blot analysis of Stat3 phosphorylation in primary osteoblast cultures; type: cell-based, mice
Method: (§2) Expression of leptin in osteoblasts was studied in subconfluent primary osteoblast cultures from wild-type mice which were maintained for 4 days in 10% FBS mineralization medium and then subsequently switched to 0.5% for 2 days and replaced daily. Medium was replaced 2 hours before a 20 min treatment with 80 ng/mL leptin (Sigma) or 40 ng/mL Oncostatin M (R&D Diagnostics) or vehicle. RNA extractions were performed using Triazol (Gibco). Northern blots were performed with 15 μg of total RNA according to methods well known in the art.
To determine whether or not leptin could transduce its signal in osteoblasts, serum-starved primary osteoblasts isolated from wild-type mice were treated with leptin. […]
(§3) The phosphorylation of Stat3, a downstream effector of leptin signaling in its target cells (Tartaglia et al., 1995, Cell 83, 1263-1271; Baumann et al., 1996, Proc Natl Acad Sci USA 93, 8374-8378; Ghilardi et al., 1996, Proc Nati Acad Sci USA 93, 6231-6235; Vaisse et al., 1996, Nat Genet 14, 95-97), was monitored, in addition to the expression of two immediate early genes whose transcription is increased following leptin treatment of target cells (Elmquist et al., 1997, Endocrinology 138, 839-842). […]

[2] = 8 ng/hr dosage, systemic; cited from earlier work
[3] = serum leptin radioimmunoassay in centrally infused ob/ob mice; type: in vivo; conditions: after intracerebroventricular infusion, 8 ng/hr, 28 days
Method: The coexistence of a high bone mass phenotype and of hypogonadism was so exceptional that it raised the hypothesis that bone resorption might be defective in these mice. The increased urinary elimination of deoxypyridinoline crosslinks (Dpd), a biochemical marker of bone resorption (Eyre et al., 1988, Biochem 252, 494-500), in the ob/ob mice argued against this hypothesis (wild-type: 10.5±2.5 nM Dpd/mM creatinine; ob/ob: 24.0 b 4.0 nM Dpd/mM creatinine). Deoxypyridinoline crosslinks were measured in morning urines using the Pyrilinks-D immunoassay kit (Metra Biosystem). Creatinine values were used for standardization between samples (Creatinine kit, Metra Biosystem). Circulating concentration of […] and leptin were quantified by radioimmunoassays, using the third generation estradiol kit (Diagnostic system laboratories) and the mouse leptin RIA kit (Linco), respectively. […] Coadministration of an estrogen analog with an Ob or ObR inhibitor further increases the high bone mass phenotype.
Lastly, the issue of whether leptin binding to its hypothalamic receptor could correct the high bone mass phenotype of the ob/ob mice as it can rescue their obesity phenotype was addressed. […]

ob/ob mice [4] = assay: intracerebroventricular infusion of leptin in ob/ob mice, bone histology and histomorphometry; type: in vivo; conditions: ovariectomized ob/ob mice, third ventricle, 8 ng/hr, 28 days, versus PBS
Method: as §1
The increase in bone mass could be due to an increase in osteoblastic bone formation, to a decrease in osteoclastic bone resorption, or to a combination of both abnormalities. To study osteoblast function in vivo, the rate of bone formation was quantified following double labeling with calcein, a marker of newly formed bone (FIG. 3A) as described (Ducy et al., 1999, Genes Dev 13, 1025-1036). Calcein was injected twice at 8 day intervals and animals were sacrificed two days later. In 3 month-old, and 6 month-old ob/ob mice there was a 70% and 60%, respectively, increase of the bone formation rate compared to the one of wild-type littermates (FIG. 3B).
Lastly, the issue of whether leptin binding to its hypothalamic receptor could correct the high bone mass phenotype of the ob/ob mice as it can rescue their obesity phenotype was addressed. To that end pumps delivering either PBS or leptin (8 ng/hr) in the third ventricle of ob/ob mice were inserted as follows. Animals were anesthetized with avertin and placed on a stereotaxic instrument (Stoelting). The calvaria was exposed and a 0.7 mm hole was drilled upon bregma. A 28-gauge cannula (Brain infusion kit U, Alza) was implanted into the third ventricle according to the following coordinates: midline, −0.3 AP, 3 mm ventral (0 point bregma). The cannula was secured to the skull with cyanoacrylate, and attached with Tygon tubing to an osmotic pump (Alza) placed in the dorsal subcutaneous space of the animal. The rate of delivery was 0.25:1/hour (8 ng/hr of leptin (Sigma)) or PBS for 28 days. The dosage has been previously shown to have no effect when administered systemically (Halaas et al., 1997, Proc Nati Acad Sci USA 94, 8878-8883). […]

[5] = test system: primary osteoblast cultures from wild-type mice; assay: long-term leptin treatment of primary osteoblast cultures (van Gieson and von Kossa staining); type: cell-based; conditions: 1.2 μg/mL for 5 days, versus control (vehicle) cultures
Method: To determine whether or not leptin could transduce its signal in osteoblasts, serum-starved primary osteoblasts isolated from wild-type mice were treated with leptin. Primary osteoblast cultures from calvaria of newborn wild-type or db/db mice were established as previously described (Ducy et al., 1999, Genes Dev 13, 1025-1036) and maintained in mineralization medium (αMEMI 0.1 mg/mL ascorbic acid; 5 mM […]) supplemented with 10% […]. Cultures of mutant cells were maintained in this medium for 15 days before analysis. Cultures derived from wild-type mice were maintained for 10 days in this medium then the percentage of serum was reduced to 0.5% and the medium supplemented with 1.2 μg/mL leptin (Sigma) or vehicle for 5 days.
Finally, the effect of a long-term leptin treatment of primary osteoblast cultures from wild-type mice on extracellular matrix synthesis and bone matrix mineralization was determined. The presence of a collagen-rich extracellular matrix and of mineralization nodules was assessed by whole-mount staining of the cultures by the van Gieson and von Kossa reagent, respectively. No difference was observed when assessing collagen synthesis or mineralization nodule formation between control and leptin-treated cultures (FIG. 5E).

Tis11 and c-fos genes = assay: Northern blot analysis of immediate early gene expression in primary osteoblast cultures; type: cell-based, mice; conditions: 20 min treatment
Method: as §2
as §3, with “839-842). As a positive control oncostatin-M that induces Stat3 phosphorylation and activates the expression of the same two immediate early genes in osteoblasts (Levy et al., 1996, Endocrinology 137, 1159-1165) was utilized. Western blot analysis was performed to determine Stat3 phosphorylation as follows.” for “839-842).”

[6] = end of the 3-month treatment period
[7] = female ob/ob mice, subcutaneous pellets, 3-month treatment

Molecule	increase in bone volume, treated ob/ob mice compared to estradiol-treated wild-type mice (ob/ob mice [1]; [6])	increase in bone volume, treated ob/ob mice compared to untreated wild-type mice (ob/ob mice [1]; [6])	correction of hypogonadism (aspect of uteri, levels of estradiol in blood) (ob/ob mice [1]; [7])	high bone mass phenotype compared to placebo treated ob/ob mice (ob/ob mice [1]; [7])	osteoclast number (ob/ob mice [1]; [7])	correction of hypogonadism (aspect of uteri, levels of estradiol in blood) (ob/ob mice [1]; female ob/ob mice, subcutaneous pellets, 3-month treatment, listed as estradiol)	bone trabeculae, histological analysis of vertebrae (ob/ob mice [1]; treated wt and even more treated ob/ob mice)	Stat3 phosphorylation, several doses (Stat3 phosphorylation; several doses, physiologic and supraphysiologic)	effect of the dosage when administered systemically [2]	leptin in the serum [3]	bone appearance, classical histology (ob/ob mice [4])	bone formation rates (ob/ob mice [4])	bone volume (ob/ob mice [4])	number of trabeculae (ob/ob mice [4])	trabeculae thickness (ob/ob mice [4])	collagen synthesis (van Gieson staining) [5]	matrix mineralization / mineralization nodule formation (von Kossa staining) [5]	expression of Tis11 and c-fos (Tis11 and c-fos genes)	Stat3 phosphorylation (Stat3 phosphorylation; primary osteoblasts from wild-type mice, serum-starved)
C[C@]12CC[C@@H]3c4ccc(O)cc4CC[C@H]3[C@@H]1CC[C@@H]2O [17 β-estradiol]	50%	3 fold	correction of the uterus atrophy	further increase of the high bone mass phenotype	normalization of the osteoclast number	corrected their hypogonadism	significant increase in bone trabeculae	–	–	–	–	–	–	–	–	–	–	–	–
leptin: endogenous polypeptide product of an ob gene; polypeptide hormone (Sigma)	–	–	–	–	–	–	–	failed to induce	no effect	No leptin	regained a normal appearance	significantly decreased	significantly decreased	fewer trabeculae	significantly decreased	No difference; also recorded: No effect	No difference; also recorded: No effect	not	–
Oncostatin-M: positive control that induces Stat3 phosphorylation and immediate early gene expression in osteoblasts (protein, UniProt P13725 26-221, looked up) Oncostatin-M: AAIGSCSKEYRVLLGQLQKQTDLMQDTSRLLDPYIRIQGLDVPKLREHCRERPGAFPSEETLRGLGRRGFLQTLNATLGCVLHRLADLEQRLPKAQDLERSGLNIEDLEKLQMARPNILGLRNNIYCMAQLLDNSDTAEPTKAGRGASQPPTPTPASDAFQRKLEGCRFLHGYHRFMHSVGRVFSKWGESPNRSRR	–	–	–	–	–	–	–	–	–	–	–	–	–	–	–	–	–	quickly and transiently activated	did induce
